Tested on: NCI-H719 tumor spheroids, viability
Test: Anticancer human tumor NCI-H719 cell line growth inhibition;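 also: spheroids exposed to compounds for seven days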;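 as to viability, T/C: percent viability relative to DMSO vehicle control as 100%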
Details: spheroids with HUVEC and MSC; for IC50: curve of first compound; for viability, T/C: stronger effect = lower value
Outline: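 Single agents and combinations were tested on spheroids built from tumor cells plus HUVEC and hMSC, at half-log dilutions starting at or near clinical Cmax, else 10 microM; final DMSO 0.25% (v/v).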

[1] = second compound 0.003 µM, first compound 0.0316 µM
[2] = second compound 0.003 µM, first compound 0.1 µM
[3] = second compound 0.003 µM, first compound 0.316 µM
[4] = second compound 0.003 µM, first compound 1 µM
[5] = second compound 0.003 µM, first compound 3.16 µM
[6] = second compound 0.003 µM, first compound 10 µM
[7] = second compound 0.00949 µM, first compound 0.0316 µM
[8] = second compound 0.00949 µM, first compound 0.1 µM
[9] = second compound 0.00949 µM, first compound 0.316 µM
[10] = second compound 0.00949 µM, first compound 1 µM
[11] = second compound 0.00949 µM, first compound 3.16 µM
[12] = second compound 0.00949 µM, first compound 10 µM
[13] = second compound 0.03 µM, first compound 0.0316 µM
[14] = second compound 0.03 µM, first compound 0.1 µM
[15] = second compound 0.03 µM, first compound 0.316 µM
[16] = second compound 0.03 µM, first compound 1 µM
[17] = second compound 0.03 µM, first compound 3.16 µM
[18] = second compound 0.03 µM, first compound 10 µM
[19] = second compound 0.0949 µM, first compound 0.0316 µM
[20] = second compound 0.0949 µM, first compound 0.1 µM
[21] = second compound 0.0949 µM, first compound 0.316 µM
[22] = second compound 0.0949 µM, first compound 1 µM
[23] = second compound 0.0949 µM, first compound 3.16 µM
[24] = second compound 0.0949 µM, first compound 10 µM
[25] = second compound 0.3 µM, first compound 0.0316 µM
[26] = second compound 0.3 µM, first compound 0.1 µM
[27] = second compound 0.3 µM, first compound 0.316 µM
[28] = second compound 0.3 µM, first compound 1 µM
[29] = second compound 0.3 µM, first compound 3.16 µM
[30] = second compound 0.3 µM, first compound 10 µM

## CC(C)n1c(=O)n(C)c2cnc3cc(F)c(-c4ccc(OCCCN5CCCCC5)nc4)cc3c21 + CC[C@@]1(O)C(=O)OCc2c1cc1n(c2=O)Cc2cc3c(CN(C)C)c(O)ccc3nc2-1
Second compound 0.003 µM
  IC50: < 31.6 nM
Second compound 0.00949 µM
  IC50: < 31.6 nM
Second compound 0.03 µM
  IC50: < 31.6 nM
Second compound 0.0949 µM
  IC50: < 31.6 nM
Second compound 0.3 µM
  IC50: < 31.6 nM
[1]
  viability, T/C: 33.1%
[2]
  viability, T/C: 48.3%
[3]
  viability, T/C: 61.5%
[4]
  viability, T/C: 63.7%
[5]
  viability, T/C: 67.9%
[6]
  viability, T/C: 50.5%
[7]
  viability, T/C: 8.54%
[8]
  viability, T/C: 8.8%
[9]
  viability, T/C: 7.39%
[10]
  viability, T/C: 6.31%
[11]
  viability, T/C: 16.9%
[12]
  viability, T/C: 12.7%
[13]
  viability, T/C: 7.27%
[14]
  viability, T/C: 6.04%
[15]
  viability, T/C: 7.74%
[16]
  viability, T/C: 6.96%
[17]
  viability, T/C: 8.35%
[18]
  viability, T/C: 6.27%
[19]
  viability, T/C: 7.12%
[20]
  viability, T/C: 6.79%
[21]
  viability, T/C: 7.51%
[22]
  viability, T/C: 7.66%
[23]
  viability, T/C: 7.78%
[24]
  viability, T/C: 6.17%
[25]
  viability, T/C: 8.38%
[26]
  viability, T/C: 7.86%
[27]
  viability, T/C: 8.29%
[28]
  viability, T/C: 8.95%
[29]
  viability, T/C: 8.79%
[30]
  viability, T/C: 5.92%

## COc1ccc([C@@H](O)c2cc(-c3ncnc4cc(N5CCOCC5)ccc34)c(F)cc2Cl)nn1 + CC[C@@]1(O)C(=O)OCc2c1cc1n(c2=O)Cc2cc3c(CN(C)C)c(O)ccc3nc2-1
Second compound 0.003 µM
  IC50: < 31.6 nM
Second compound 0.00949 µM
  IC50: < 31.6 nM
Second compound 0.03 µM
  IC50: < 31.6 nM
Second compound 0.0949 µM
  IC50: < 31.6 nM
Second compound 0.3 µM
  IC50: < 31.6 nM
[1]
  viability, T/C: 42.3%
[2]
  viability, T/C: 46.7%
[3]
  viability, T/C: 42.6%
[4]
  viability, T/C: 38.4%
[5]
  viability, T/C: 30.1%
[6]
  viability, T/C: 10.6%
[7]
  viability, T/C: 8.42%
[8]
  viability, T/C: 6.63%
[9]
  viability, T/C: 6.02%
[10]
  viability, T/C: 6.07%
[11]
  viability, T/C: 6.61%
[12]
  viability, T/C: 5.88%
[13]
  viability, T/C: 5.79%
[14]
  viability, T/C: 6.19%
[15]
  viability, T/C: 5.16%
[16]
  viability, T/C: 5.17%
[17]
  viability, T/C: 4.89%
[18]
  viability, T/C: 3.08%
[19]
  viability, T/C: 6.51%
[20]
  viability, T/C: 7.08%
[21]
  viability, T/C: 5.96%
[22]
  viability, T/C: 5.16%
[23]
  viability, T/C: 3.45%
[24]
  viability, T/C: 1.55%
[25]
  viability, T/C: 7.33%
[26]
  viability, T/C: 7.08%
[27]
  viability, T/C: 6.09%
[28]
  viability, T/C: 3.58%
[29]
  viability, T/C: 1.58%
[30]
  viability, T/C: 1.36%

## O=C(c1cc(Cc2n[nH]c(=O)c3ccccc23)ccc1F)N1CCN(C(=O)C2CC2)CC1 + COc1cc2c(cc1O)CCNC21CSC2c3c(OC(C)=O)c(C)c4c(c3C(COC1=O)N1C(O)C3Cc5cc(C)c(OC)c(O)c5C(C21)N3C)OCO4
Second compound 30 pM
  IC50: 356 nM
Second compound 94.9 pM
  IC50: < 94.9 nM
Second compound 0.0003 µM
  IC50: < 94.9 nM
Second compound 0.000949 µM
  IC50: < 94.9 nM
Second compound 0.003 µM
  IC50: < 94.9 nM
Second compound 30 pM, first compound 0.0949 µM
  viability, T/C: 67%
Second compound 30 pM, first compound 0.3 µM
  viability, T/C: 48.7%
Second compound 30 pM, first compound 0.949 µM
  viability, T/C: 41.7%
Second compound 30 pM, first compound 3 µM
  viability, T/C: 22.3%
Second compound 30 pM, first compound 9.49 µM
  viability, T/C: 12.5%
Second compound 30 pM, first compound 30 µM
  viability, T/C: 8.97%
Second compound 94.9 pM, first compound 0.0949 µM
  viability, T/C: 23.4%
Second compound 94.9 pM, first compound 0.3 µM
  viability, T/C: 13.7%
Second compound 94.9 pM, first compound 0.949 µM
  viability, T/C: 14%
Second compound 94.9 pM, first compound 3 µM
  viability, T/C: 13.3%
Second compound 94.9 pM, first compound 9.49 µM
  viability, T/C: 13.3%
Second compound 94.9 pM, first compound 30 µM
  viability, T/C: 6.02%
Second compound 0.0003 µM, first compound 0.0949 µM
  viability, T/C: 10.9%
Second compound 0.0003 µM, first compound 0.3 µM
  viability, T/C: 8.6%
Second compound 0.0003 µM, first compound 0.949 µM
  viability, T/C: 11.6%
Second compound 0.0003 µM, first compound 3 µM
  viability, T/C: 11.6%
Second compound 0.0003 µM, first compound 9.49 µM
  viability, T/C: 8.94%
Second compound 0.0003 µM, first compound 30 µM
  viability, T/C: 6.85%
Second compound 0.000949 µM, first compound 0.0949 µM
  viability, T/C: 6.97%
Second compound 0.000949 µM, first compound 0.3 µM
  viability, T/C: 8.6%
Second compound 0.000949 µM, first compound 0.949 µM
  viability, T/C: 8.56%
Second compound 0.000949 µM, first compound 3 µM
  viability, T/C: 7.26%
Second compound 0.000949 µM, first compound 9.49 µM
  viability, T/C: 5.7%
Second compound 0.000949 µM, first compound 30 µM
  viability, T/C: 4.86%
Second compound 0.003 µM, first compound 0.0949 µM
  viability, T/C: 0.61%
Second compound 0.003 µM, first compound 0.3 µM
  viability, T/C: 0.45%
Second compound 0.003 µM, first compound 0.949 µM
  viability, T/C: 0.63%
Second compound 0.003 µM, first compound 3 µM
  viability, T/C: 0.7%
Second compound 0.003 µM, first compound 9.49 µM
  viability, T/C: 0.69%
Second compound 0.003 µM, first compound 30 µM
  viability, T/C: 1.37%
